Test results from patent publication US20240247080A1, “GLP1/GIP/NPY2 RECEPTOR TRIPLE AGONISTS” (Boehringer Ingelheim International GmbH, priority 2022, published 2024).
Read-outs that look alike come from different tables or passages of the source. Starred links: 1 amine or outer side, 2 acyl side, 3 side chain; linkers in the order of their positions; H or OH if unused. Positions of bridges follow the written chain, without caps; N, C: chain ends. Non-standard residues stand in square brackets, D forms with d. Groups on a side chain read outwards from the residue. Chains are numbered I, II in the order given. No end group written: not given here. *: point of attachment. C20 diacid = O=C(O)CCCCCCCCCCCCCCCCCCC(=O)*; C18 diacid = O=C(O)CCCCCCCCCCCCCCCCC(=O)*; γGlu = O=C(O)[C@H](CCC(=O)[*:2])N[*:1]; εLys = N[C@@H](CCCCN[*:1])C(=O)[*:2]; AEEA = NCCOCCOCC(=O)O; Aib = CC(C)(N)C(=O)O; Ahx = NCCCCCC(=O)O

Experiments:
Format in all cases: cell-based
Settings in all cases: CreLuc reporter gene assay
hGLP1R = target: T1, hGLP1R (Homo sapiens, UniProt P43220); experiment: hGLP1R CreLuc reporter gene assay in 0.5% and 100% plasma
T1 construct: expressed in transfected cells; host or cells: HEK-293 cells carrying a CRE-luciferase reporter gene
T1 sequence (P43220 24-463): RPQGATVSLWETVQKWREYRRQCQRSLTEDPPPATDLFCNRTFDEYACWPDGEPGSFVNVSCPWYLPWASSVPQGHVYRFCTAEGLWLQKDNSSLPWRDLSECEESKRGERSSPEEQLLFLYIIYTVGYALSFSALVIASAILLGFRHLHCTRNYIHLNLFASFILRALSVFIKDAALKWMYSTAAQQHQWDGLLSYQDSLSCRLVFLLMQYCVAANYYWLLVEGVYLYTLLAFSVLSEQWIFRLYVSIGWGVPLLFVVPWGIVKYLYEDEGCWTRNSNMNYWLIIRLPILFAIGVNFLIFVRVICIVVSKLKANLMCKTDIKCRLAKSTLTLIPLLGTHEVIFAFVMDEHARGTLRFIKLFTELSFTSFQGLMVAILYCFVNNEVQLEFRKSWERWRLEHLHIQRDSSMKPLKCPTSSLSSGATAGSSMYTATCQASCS
In short: (§1)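 HEK cells (GLP-1R, NPY2R) or CHO cells (GIPR) carrying a CRE-luciferase reporter, incubated 4 h at 37 °C with peptides in HBSS/20 mM HEPES pH 7.4 plus 0.5% human plasma, or in 100% plasma. Luminescence read; EC50 from 8-point variable-slope sigmoid fits.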

hGIPR = target: T2, hGIPR (Homo sapiens, UniProt P48546); experiment: hGIPR CreLuc reporter gene assay in 0.5% and 100% plasma
T2 construct: expressed in transfected cells; host or cells: CHO cells carrying a CRE-luciferase reporter gene
T2 sequence (P48546 22-466): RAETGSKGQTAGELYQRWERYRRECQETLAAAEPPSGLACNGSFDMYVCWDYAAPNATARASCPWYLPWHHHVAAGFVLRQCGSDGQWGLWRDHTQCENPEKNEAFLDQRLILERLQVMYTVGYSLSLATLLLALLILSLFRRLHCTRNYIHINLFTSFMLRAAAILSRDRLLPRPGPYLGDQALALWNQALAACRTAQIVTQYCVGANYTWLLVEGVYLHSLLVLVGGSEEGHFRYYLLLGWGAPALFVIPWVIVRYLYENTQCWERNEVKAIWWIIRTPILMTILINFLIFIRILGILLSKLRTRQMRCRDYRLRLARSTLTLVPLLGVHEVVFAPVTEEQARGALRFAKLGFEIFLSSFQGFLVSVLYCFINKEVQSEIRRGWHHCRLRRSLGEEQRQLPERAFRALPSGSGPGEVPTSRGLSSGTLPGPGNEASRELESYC
In short: as §1

hNPY2R = target: T3, hNPY2R (Homo sapiens, UniProt P49146); experiment: hNPY2R CreLuc reporter gene assay in 0.5% and 100% plasma
T3 construct: expressed in transfected cells; host or cells: HEK-293 cells carrying a CRE-luciferase reporter gene
T3 sequence (P49146 1-381): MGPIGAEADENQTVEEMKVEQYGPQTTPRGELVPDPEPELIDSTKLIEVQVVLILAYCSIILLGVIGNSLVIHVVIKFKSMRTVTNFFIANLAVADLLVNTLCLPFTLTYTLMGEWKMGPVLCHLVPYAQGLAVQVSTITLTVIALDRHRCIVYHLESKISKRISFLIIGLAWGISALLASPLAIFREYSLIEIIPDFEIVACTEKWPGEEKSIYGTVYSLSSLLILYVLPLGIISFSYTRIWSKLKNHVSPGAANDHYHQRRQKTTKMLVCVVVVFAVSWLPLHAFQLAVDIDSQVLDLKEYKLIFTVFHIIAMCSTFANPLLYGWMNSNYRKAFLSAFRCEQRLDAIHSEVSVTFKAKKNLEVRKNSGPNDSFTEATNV
In short: as §1

[1] = 0.5% human plasma, read-out: hGLP1R 0.5% hP
[2] = 100% human plasma, read-out: hGLP1R 100% hP
[3] = 0.5% human plasma, read-out: hGIPR 0.5% hP
[4] = 100% human plasma, read-out: hGIPR 100% hP
[5] = 0.5% human plasma, read-out: hNPY2R 0.5% hP
[6] = 100% human plasma, read-out: hNPY2R 100% hP

H-Y[Aib]EGTFTSDYSI[Aib]LEKQAQ[Aib]AFVEWLIK([εLys-γGlu-γGlu-γGlu-γGlu-γGlu-C18 diacid])GGPESGASLRHYYNWLTRQRY-NH2 [Compound 152, Y-Aib-E-G-T-F-T-S-D-Y-S-I-Aib-L-E-K-Q-A-Q-Aib-A-F-V-E-W-L-I-K(1,3)-GGPESGASLRHYYNWLTRQRY-NH2.C18DA-gGlu-gGlu-gGlu-gGlu-gGlu-eLys(1,2)]
EC50 (hGLP1R; [1]): 0.13 nM | EC50 (hGLP1R; [2]): 4.24 nM | EC50 (hGIPR; [3]): 0.4 nM | EC50 (hGIPR; [4]): 0.96 nM | EC50 (hNPY2R; [5]): 12.6 nM

H-Y[Aib]EGTFTSDYSI[Aib]LEKQAQ[Aib]AFVEWLIK([Ahx-γGlu-γGlu-γGlu-γGlu-γGlu-C18 diacid])GGPSSGASLRHYYNWLTRQRY-NH2 [Compound 260, Y-Aib-E-G-T-F-T-S-D-Y-S-I-Aib-L-E-K-Q-A-Q-Aib-A-F-V-E-W-L-I-K(1,3)-GGPSSGASLRHYYNWLTRQRY-NH2.C18DA-gGlu-gGlu-gGlu-gGlu-gGlu-AHX(1,2)]
EC50 (hGLP1R; [1]): 0.13 nM | EC50 (hGIPR; [3]): 0.31 nM | EC50 (hNPY2R; [5]): 26.4 nM

I: Y[Aib]EGTFTSDYSI[Aib]LEKQAQ[Aib]AFVQWLIKGGPSEGASLRHYYNWLTRQRY-NH2 / II: {C20 diacid}-EEEEE[εLys] (amide I:28-II:C) [Compound 240, Y-Aib-E-G-T-F-T-S-D-Y-S-I-Aib-L-E-K-Q-A-Q-Aib-A-F-V-Q-W-L-I-K(1,3)-GGPSEGASLRHYYNWLTRQRY-NH2.C20DA-E-E-E-E-E-eLys(1,2)]
EC50 (hGLP1R; [1]): 0.14 nM | EC50 (hGLP1R; [2]): 6.74 nM | EC50 (hGIPR; [3]): 0.33 nM | EC50 (hGIPR; [4]): 1.97 nM | EC50 (hNPY2R; [5]): 10.7 nM

H-Y[Aib]EGTFTSDYSI[Aib]LEKQAQ[Aib]AFVEWLIK([AEEA-AEEA-γGlu-γGlu-γGlu-γGlu-C18 diacid])GGPESGASLRHYYNWLTRQRY-NH2 [Compound 163, Y-Aib-E-G-T-F-T-S-D-Y-S-I-Aib-L-E-K-Q-A-Q-Aib-A-F-V-E-W-L-I-K(1,3)-GGPESGASLRHYYNWLTRQRY-NH2.C18DA-gGlu-gGlu-gGlu-gGlu-OEG-OEG(1,2)]
EC50 (hGLP1R; [1]): 0.1 nM | EC50 (hGIPR; [3]): 0.26 nM | EC50 (hGIPR; [4]): 0.87 nM | EC50 (hNPY2R; [5]): 21.3 nM | EC50 (hNPY2R; [6]): 55.2 nM

H-Y[Aib]EGTFTSDYSI[Aib]LEEQAQ[Aib]AFVEWLIK([εLys-γGlu-γGlu-γGlu-γGlu-γGlu-γGlu-C20 diacid])GGPSSGASLRHYYNWLTRQRY-NH2 [Compound 116, Y-Aib-E-G-T-F-T-S-D-Y-S-I-Aib-L-E-E-Q-A-Q-Aib-A-F-V-E-W-L-I-K(1,3)-GGPSSGASLRHYYNWLTRQRY-NH2.C20DA-gGlu-gGlu-gGlu-gGlu-gGlu-gGlu-eLys(1,2)]
EC50 (hGLP1R; [1]): 0.14 nM | EC50 (hGLP1R; [2]): 2.48 nM | EC50 (hGIPR; [3]): 0.43 nM | EC50 (hGIPR; [4]): 3.01 nM | EC50 (hNPY2R; [5]): 13.5 nM | EC50 (hNPY2R; [6]): 85.7 nM

H-Y[Aib]EGTFTSDYSI[Aib]LEKQAQ[Aib]AFVQWLIK([AEEA-AEEA-γGlu-γGlu-γGlu-γGlu-C18 diacid])GGPSEPASLRHYYNWLTRQRY-NH2 [Compound 173, Y-Aib-E-G-T-F-T-S-D-Y-S-I-Aib-L-E-K-Q-A-Q-Aib-A-F-V-Q-W-L-I-K(1,3)-GGPSEPASLRHYYNWLTRQRY-NH2.C18DA-gGlu-gGlu-gGlu-gGlu-OEG-OEG(1,2)]
EC50 (hGLP1R; [1]): 0.11 nM | EC50 (hGLP1R; [2]): 3.07 nM | EC50 (hGIPR; [3]): 0.27 nM | EC50 (hGIPR; [4]): 0.94 nM | EC50 (hNPY2R; [5]): 12.4 nM | EC50 (hNPY2R; [6]): 24.9 nM

H-Y[Aib]EGTFTSDYSI[Aib]LEKQAQ[Aib]AFVEWLIK([εLys-γGlu-γGlu-γGlu-γGlu-γGlu-γGlu-C20 diacid])GGPSYYVSLRHYYNWLTRQRY-NH2 [Compound 80, Y-Aib-E-G-T-F-T-S-D-Y-S-I-Aib-L-E-K-Q-A-Q-Aib-A-F-V-E-W-L-I-K(1,3)-GGPSYYVSLRHYYNWLTRQRY-NH2.C20DA-gGlu-gGlu-gGlu-gGlu-gGlu-gGlu-eLys(1,2)]
EC50 (hGLP1R; [1]): 1.6 nM | EC50 (hGIPR; [3]): 0.79 nM | EC50 (hNPY2R; [5]): 12.8 nM | EC50 (hNPY2R; [6]): 54.8 nM
